Results taken from article PMC10447287, “Optimisation of Pharmaceutical Cocrystal Dissolution Performance through a Synergistic Precipitation Inhibition” (Pharmaceutical Research, 2023).

What was measured:
[1] = Equilibrium solubility of FFA in DDW and PBS in the absence and presence of a predissolved polymer or a combination; format: physicochemical
Protocol: The FFA solubility was determined by suspending an excess amount of crystalline materials of FFA I in small vials with 20 mL of a selected dissolution medium (i.e., DDW or PBS pH 4.5) in the absence and presence of a predissolved single polymer and a combination. The detailed polymers and their corresponding concentrations were 0.2 mg/mL of PVP-VA, 1 mg/mL of PEG and 0.2 mg/mL of SLP, which were based on the previous study and the solubility curve obtained in the preliminary study in Figure S5 in the supporting materials. All of the suspensions were kept at 37 ± 0.5°C in a water bath with a shaking rate of 150 rpm for 24 h. Each of the supernatants was separated from excess solids in solution by centrifugation at 13,000 RPM for 1 min in an MSB 010.CX2.5 centrifuge (MSE Ltd., London, U.K.). Subsequently, the supernatant was diluted using ethanol, and the FFA concentration was determined using HPLC. The solid residues retrieved from the tests were dried for 24 h at ambient temperature and then analysed by PXRD. Each of the experiments was conducted in triplicate, and data were reported as an average concentration. Additionally, the FFA solubility in PBS pH 6.8 at 37 ± 0.5°C was also measured in triplicate. The solids were scanned by D2 phaser diffractometer (Bruker U.K. Limited, Coventry, UK) with […] radiation operating at voltage of 30 kV and current of 10 mA. The scanning angle ranged from 2°-40° of 2θ. The scanning time per step was 0.4 s. The scan step size was 0.02° of 2θ.

[2] = Particle size distribution of sieved powders; format: physicochemical; conditions: sieved particles < 250 μm
Protocol: All samples (i.e., FFA, FFA-NIC cocrystal and FFA-TP cocrystal) used in the dissolution tests were slightly ground by a mortar and pestle and sieved by a 60-mesh sieve (below 250 μm) to reduce the influence of particle size on the dissolution rates. The particle size distributions of the test samples were measured using a SYNC Analyzer (MICROTRAC Retsch GmbH, Hann, Germany). The particle size distributions (D10, D50, D90 and mean particle size) of the solid particles were compared. The data were analysed by the Microtrac FLEX software (12.0.0.1).

[3] = Dissolution tests of powders in DDW with predissolved polymer or combination (USP type II paddle); format: physicochemical; conditions: for solid residues after dissolution tests (PXRD): DDW in the absence or presence of predissolved polymers; for FFA concentration in solution after 4 h / FFA DPP (dissolution performance parameter): DDW; for FFA concentration in solution after 4 h: no polymer, powder dissolution; for FFA DPP (dissolution performance parameter): 0-4 h, reference same powder in DDW
Protocol: In vitro dissolution tests were performed with a USP type II paddle apparatus (DT 126 light, Erweka GmbH, Germany) at 37 ± 0.5°C with a paddle speed of 50 rpm in 400 mL of DDW in the absence and presence of a predissolved polymer (i.e., 0.2 mg/mL of PVP-VA, 1 mg/mL of PEG, 0.2 mg/mL of SLP) or a combination of two polymers (i.e., 0.2 mg/mL PVP-VA + 1 mg/mL PEG, […]).
71.7 mg of FFA-NIC cocrystal powders with the equivalent of 50 mg FFA I powders were used in each of the dissolution tests. Samples of 1 ± 0.1 mL were withdrawn from the dissolution vessel at the predefined time points of 5, 10, 15, 30, 60, 120, 180 and 240 min. The supernatant of each of the samples was separated from the excess solids by centrifugation at 13,000 RPM for 1 min in an MSE Micro Centaur. HPLC was used to determine the concentrations of FFA and NIC in solution. Solid residues obtained from the experiments were dried at room temperature and analysed by PXRD. All experiments were repeated in triplicate.
For comparison, the above dissolution tests were also repeated using 50 mg of pure FFA I powders and 82.0 mg of FFA-TP cocrystal powders.
DPP was used to evaluate the dissolution profile of the test powders in comparison to a reference system, which is defined as,4 DPP=AUCC(t)-AUCCR(t)/AUCCR(t)×100% where AUCC(t) is the area under the curve (AUC) of a dissolution profile C(t) , indicating the amount of drug dissolved is maintained over the period of the dissolution time from 0 to t, and AUCCR(t) is the AUC of a reference dissolution profile CR(t) .
The solids were scanned by D2 phaser diffractometer (Bruker U.K. Limited, Coventry, UK) with […] radiation operating at voltage of 30 kV and current of 10 mA. The scanning angle ranged from 2°-40° of 2θ. The scanning time per step was 0.4 s. The scan step size was 0.02° of 2θ.

[4] = Ionisation constants of flufenamic acid; format: physicochemical; conditions: at pH 4.5
[5] = design: method as in doi:10.1007/s10953-010-9642-6; conditions: cited from earlier work
[6] = predissolved PVP-VA (0.2 mg/mL)
[7] = predissolved SLP (0.2 mg/mL) + PVP-VA (0.2 mg/mL)

Structure (SMILES): O=C(O)c1ccccc1Nc1cccc(C(F)(F)F)c1 [FFA, Flufenamic acid]
- solubility at 24 h ([1]; DDW, 37 °C, aqueous with cosolvent or surfactant or cyclodextrin, thermodynamic from solid, DDW, predissolved PEG (1 mg/mL) + PVP-VA (0.2 mg/mL), 37°C): 20.9 ± 5.35 µg/mL
- solubility at 24 h ([1]; DDW, 37 °C, aqueous with cosolvent or surfactant or cyclodextrin, thermodynamic from solid, DDW, predissolved SLP (0.2 mg/mL) + PVP-VA (0.2 mg/mL), 37°C): 119 ± 3.3 µg/mL
- solubility at 24 h ([1]; DDW, 37 °C, aqueous with cosolvent or surfactant or cyclodextrin, thermodynamic from solid, predissolved PEG (1 mg/mL)): 17.8 ± 1.72 µg/mL
- solubility at 24 h ([1]; DDW, 37 °C, aqueous with cosolvent or surfactant or cyclodextrin, thermodynamic from solid, predissolved PVP-VA (0.2 mg/mL)): 12 ± 1.4 µg/mL
- solubility at 24 h ([1]; DDW, absence of polymer, 37°C): 10.1 ± 0.79 µg/mL
- solubility at 24 h ([1]; DDW, predissolved SLP (0.2 mg/mL), 37°C): 111 ± 16.2 µg/mL
- solubility at 24 h ([1]; PBS pH 4.5, 37 °C, pH 4.5, aqueous buffer, thermodynamic from solid, PBS pH 4.5, absence of polymer, 37°C): 18.3 ± 2.39 µg/mL
- solubility at 24 h ([1]; PBS pH 4.5, 37 °C, pH 4.5, aqueous with cosolvent or surfactant or cyclodextrin, thermodynamic from solid, PBS pH 4.5, predissolved PEG (1 mg/mL) + PVP-VA (0.2 mg/mL), 37°C): 11.4 ± 0.22 µg/mL
- solubility at 24 h ([1]; PBS pH 4.5, 37 °C, pH 4.5, aqueous with cosolvent or surfactant or cyclodextrin, thermodynamic from solid, PBS pH 4.5, predissolved PVP-VA (0.2 mg/mL), 37°C): 11 ± 1.32 µg/mL
- solubility at 24 h ([1]; PBS pH 4.5, 37 °C, pH 4.5, aqueous with cosolvent or surfactant or cyclodextrin, thermodynamic from solid, PBS pH 4.5, predissolved SLP (0.2 mg/mL) + PVP-VA (0.2 mg/mL), 37°C): 41.1 ± 4.2 µg/mL
- solubility at 24 h ([1]; PBS pH 4.5, 37 °C, pH 4.5, aqueous with cosolvent or surfactant or cyclodextrin, thermodynamic from solid, PBS pH 4.5, predissolved SLP (0.2 mg/mL), 37°C): 41.9 ± 2.5 µg/mL
- solubility at 24 h ([1]; PBS pH 4.5, pH 4.5, PBS pH 4.5, predissolved PEG (1 mg/mL), 37°C): 9.01 ± 0.26 µg/mL
- solubility ([1]; PBS pH 6.8, 37 °C, pH 6.8, aqueous buffer, thermodynamic from solid, PBS pH 6.8, absence of polymer, 37°C): 741.1 ± 6.27 µg/mL
- solid form of residues after solubility tests (PXRD) ([1]; after 24 h in various media): remained the form I
- D10 [2]: 5.19 μm
- D50 [2]: 13.58 μm
- D90 [2]: 84.86 μm
- Mean particle size [2]: 31.71 μm
- solid residues after dissolution tests (PXRD) [3]: no phase transformation
- FFA concentration in solution after 4 h [3]: 4.99 µg/mL
- FFA DPP (dissolution performance parameter) [3, 6]: -24%
- FFA DPP (dissolution performance parameter) [3, 7]: 50%
- FFA DPP (dissolution performance parameter) ([3]; predissolved SLP (0.2 mg/mL)): 30%
- fraction in the neutral form [4]: more than 75%
- isoelectric point pH [5]: 3.88 ± 0.03
- pKa1 (basic group) [5]: 2.92 ± 0.01
- pKa2 (acidic group) [5]: 4.84 ± 0.04

Structure (SMILES): Cn1c(=O)c2[nH]cnc2n(C)c1=O.O=C(O)c1ccccc1Nc1cccc(C(F)(F)F)c1 [FFA-TP cocrystal]
- D10 [2]: 5.25 μm
- D50 [2]: 12.32 μm
- D90 [2]: 56.64 μm
- Mean particle size [2]: 23.92 μm
- solid residues after dissolution tests (PXRD) [3]: the same as the starting materials
- FFA concentration in solution after 4 h [3]: 8.35 µg/mL
- FFA DPP (dissolution performance parameter) ([3]; predissolved PEG (1 mg/mL) + PVP-VA (0.2 mg/mL)): 12%
- FFA DPP (dissolution performance parameter) ([3]; predissolved PEG (1 mg/mL)): 24%
- FFA DPP (dissolution performance parameter) [3, 6]: -17%
- FFA DPP (dissolution performance parameter) [3, 7]: 23%
- FFA DPP (dissolution performance parameter) ([3]; predissolved SLP (0.2 mg/mL)): 3%
